Several values for one entry are separate records, joined by “and”; a condition that tells them apart may be missing. Equal values may be shown once. Inconclusive results and toxic doses are left out. The calls were made as follows: active = survival T/C of 150% or more; inactive = T/C below 125% in these data.
System: P388 leukemia ip, CD2F1 mice, survival T/C
Test: NCI In Vivo Anticancer Drug Screen. Data for tumor model P388 Leukemia (intraperitoneal) in CD2F1 (CDF1) mice
Conditions: endpoint: median survival time, higher = longer survival
Summary of the method: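 Mice carrying the transplanted tumor received test compound or vehicle. Survival was recorded in each group, and the value is the treated-group measurement divided by that of the vehicle-treated control group.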

[1] = dose: 120.0 mg/kg/injection, schedule: Q01DX005 (ip), vehicle: saline with Tween-80
[2] = dose: 240.0 mg/kg/injection, schedule: Q01DX005 (ip), vehicle: saline with Tween-80
[3] = dose: 60.0 mg/kg/injection, schedule: Q01DX005 (ip), vehicle: saline with Tween-80
[4] = dose: 50.0 mg/kg/injection, schedule: Q01DX009 (ip), vehicle: saline with Tween-80
[5] = dose: 100.0 mg/kg/injection, schedule: Q01DX009 (ip), vehicle: saline with Tween-80
[6] = dose: 50.0 mg/kg/injection, schedule: Q01DX005 (ip), vehicle: Klucel (hydroxypropylcellulose) (HPC)
[7] = dose: 100.0 mg/kg/injection, schedule: Q01DX005 (ip), vehicle: Klucel (hydroxypropylcellulose) (HPC)

Measured: T/C

CC(c1ccccc1)/[N+]([O-])=N\O (stereo not given)
inactive: dose: 3.0 mg/kg/injection, schedule: Q01DX005 (ip), vehicle: Klucel + Tween-80 100 % of control | dose: 6.0 mg/kg/injection, schedule: Q01DX005 (ip), vehicle: Klucel + Tween-80 90 % of control | dose: 12.0 mg/kg/injection, schedule: Q01DX005 (ip), vehicle: Klucel + Tween-80 97 % of control | dose: 24.0 mg/kg/injection, schedule: Q01DX005 (ip), vehicle: Klucel + Tween-80 98 % of control

CCn1c(=S)[nH]c2sc3c(c2c1=O)CCCCC3
inactive: [1] 89 % of control | [2] 101 % of control

CCCSC(=O)Nc1cc(OC)ccc1OC
inactive: [3] 98 % of control | [1] 98 % of control | [2] 104 % of control

CC(=O)CC(=O)c1c(-c2ccccc2)[nH]c2ccccc12
inactive: dose: 25.0 mg/kg/injection, schedule: Q04DX003 (ip), vehicle: saline + alcohol 100 % of control | dose: 50.0 mg/kg/injection, schedule: Q04DX003 (ip), vehicle: saline + alcohol 102 % of control | dose: 100.0 mg/kg/injection, schedule: Q04DX003 (ip), vehicle: saline + alcohol 107 % of control and 96 % of control

Cc1cc2nc3c(=O)[nH]c(=O)nc-3n(CC=O)c2cc1C
inactive: dose: 16.0 mg/kg/injection, schedule: Q01DX009 (ip), vehicle: saline with Tween-80 92 % of control | dose: 32.0 mg/kg/injection, schedule: Q01DX009 (ip), vehicle: saline with Tween-80 91 % of control | dose: 64.0 mg/kg/injection, schedule: Q01DX009 (ip), vehicle: saline with Tween-80 90 % of control | dose: 128.0 mg/kg/injection, schedule: Q01DX009 (ip), vehicle: saline with Tween-80 90 % of control | dose: 135.0 mg/kg/injection, schedule: Q01DX009 (ip), vehicle: saline with Tween-80 104 % of control | dose: 180.0 mg/kg/injection, schedule: Q01DX009 (ip), vehicle: saline with Tween-80 104 % of control | dose: 240.0 mg/kg/injection, schedule: Q01DX009 (ip), vehicle: saline with Tween-80 104 % of control | dose: 256.0 mg/kg/injection, schedule: Q01DX009 (ip), vehicle: saline with Tween-80 102 % of control | dose: 320.0 mg/kg/injection, schedule: Q01DX009 (ip), vehicle: saline with Tween-80 102 % of control

O=C(N/N=C/c1cc(Br)cc(Br)c1O)c1ccccc1
inactive: dose: 100.0 mg/kg/injection, schedule: Q01DX001 (ip), vehicle: saline with Tween-80 96 % of control | dose: 200.0 mg/kg/injection, schedule: Q01DX001 (ip), vehicle: saline with Tween-80 96 % of control | dose: 400.0 mg/kg/injection, schedule: Q01DX001 (ip), vehicle: saline with Tween-80 92 % of control

Cc1cc(SCC(=O)c2ccc(Br)cc2)cc(C)[o+]1
inactive: [4] 100 % of control | [5] 86 % of control | dose: 100.0 mg/kg/injection, schedule: Q04DX003 (ip), vehicle: saline with Tween-80 104 % of control | dose: 200.0 mg/kg/injection, schedule: Q04DX003 (ip), vehicle: saline with Tween-80 114 % of control

CCCC(=O)N1CCCCC1CC (stereo not given)
inactive: dose: 100.0 mg/kg/injection, schedule: Q01DX001 (ip), vehicle: saline 100 % of control | dose: 200.0 mg/kg/injection, schedule: Q01DX001 (ip), vehicle: saline 102 % of control

S=C(NNc1nnc(-c2ccccc2)c(-c2ccccc2)n1)NC1CCCCC1
inactive: dose: 50.0 mg/kg/injection, schedule: Q01DX005 (ip), vehicle: saline with Tween-80 93 % of control | dose: 100.0 mg/kg/injection, schedule: Q01DX005 (ip), vehicle: saline with Tween-80 88 % of control

COc1cc(/C=C/C2=C(C)C(=O)CC(c3cc(OC)cc(OC)c3)C2C)cc(OC)c1 (stereo not given)
inactive: dose: 12.5 mg/kg/injection, schedule: Q04DX003 (ip), vehicle: Klucel (hydroxypropylcellulose) (HPC) 100 % of control | dose: 25.0 mg/kg/injection, schedule: Q04DX003 (ip), vehicle: Klucel (hydroxypropylcellulose) (HPC) 98 % of control | dose: 50.0 mg/kg/injection, schedule: Q04DX003 (ip), vehicle: Klucel (hydroxypropylcellulose) (HPC) 95 % of control

CC(=O)OC1C=CCC2C(=O)C34CC=CC(OC(C)=O)C3(C(=O)c3ccccc3C4=O)C(=O)C12 (stereo not given)
inactive: dose: 6.25 mg/kg/injection, schedule: Q01DX009 (ip), vehicle: saline with Tween-80 103 % of control | dose: 12.5 mg/kg/injection, schedule: Q01DX009 (ip), vehicle: saline with Tween-80 101 % of control | dose: 25.0 mg/kg/injection, schedule: Q01DX009 (ip), vehicle: saline with Tween-80 120 % of control | [4] 116 % of control | [5] 116 % of control

CC(=O)CC(C)(C)C(C#N)c1ccccc1 (stereo not given)
inactive: dose: 100.0 mg/kg/injection, schedule: Q04DX003 (ip), vehicle: Klucel (hydroxypropylcellulose) (HPC) 99 % of control | dose: 200.0 mg/kg/injection, schedule: Q04DX003 (ip), vehicle: Klucel (hydroxypropylcellulose) (HPC) 115 % of control | dose: 400.0 mg/kg/injection, schedule: Q04DX003 (ip), vehicle: Klucel (hydroxypropylcellulose) (HPC) 98 % of control

O=c1[nH]c2cc([N+](=O)[O-])ccc2nc1/C=C(\O)c1cccnc1
inactive: dose: 60.0 mg/kg/injection, schedule: Q01DX005 (ip), vehicle: Klucel (hydroxypropylcellulose) (HPC) 94 % of control | dose: 120.0 mg/kg/injection, schedule: Q01DX005 (ip), vehicle: Klucel (hydroxypropylcellulose) (HPC) 88 % of control | dose: 240.0 mg/kg/injection, schedule: Q01DX005 (ip), vehicle: Klucel (hydroxypropylcellulose) (HPC) 94 % of control

COc1ccc2c(c1)nc(/C(C(=O)C(=O)c1ccccc1)=C(\O)c1ccccc1)c(C)[n+]2[O-]
inactive: dose: 60.0 mg/kg/injection, schedule: Q01DX005 (ip), vehicle: saline 103 % of control | dose: 120.0 mg/kg/injection, schedule: Q01DX005 (ip), vehicle: saline 104 % of control | dose: 240.0 mg/kg/injection, schedule: Q01DX005 (ip), vehicle: saline 100 % of control

CN(C)P(=O)(Oc1occc1C(C)(C)O)N(C)C
inactive: dose: 7.5 mg/kg/injection, schedule: Q01DX005 (ip), vehicle: saline 100 % of control | dose: 15.0 mg/kg/injection, schedule: Q01DX005 (ip), vehicle: saline 102 % of control

Cc1ccc(NCCCN2CCN(CCCNc3ccc(C)c4sc5ccccc5c(=O)c34)CC2)c2c(=O)c3ccccc3sc12
inactive: dose: 0.5 mg/kg/injection, schedule: Q01DX005 (ip), vehicle: saline with Tween-80 97 % of control | dose: 1.0 mg/kg/injection, schedule: Q01DX005 (ip), vehicle: saline with Tween-80 88 % of control | dose: 2.0 mg/kg/injection, schedule: Q01DX005 (ip), vehicle: saline with Tween-80 97 % of control | dose: 4.0 mg/kg/injection, schedule: Q01DX005 (ip), vehicle: saline with Tween-80 90 % of control

C(NC=C1c2ccccc2-c2ccccc21)=C1c2ccccc2-c2ccccc21
inactive: [6] 100 % of control | [7] 92 % of control | dose: 200.0 mg/kg/injection, schedule: Q01DX005 (ip), vehicle: Klucel (hydroxypropylcellulose) (HPC) 94 % of control

OC(COc1cccc2ccccc12)CN(CCCl)CCCl (stereo not given)
inactive: dose: 1.25 mg/kg/injection, schedule: Q01DX009 (ip), vehicle: saline 122 % of control | dose: 20.0 mg/kg/injection, schedule: Q01DX009 (ip), vehicle: saline 91 % of control

Nc1nc2nn(-c3ccc(C(=O)NC(CCC(=O)O)C(=O)O)cc3)nc2c(=O)[nH]1 (stereo not given)
inactive: dose: 12.5 mg/kg/injection, schedule: Q01DX009 (ip), vehicle: Klucel (hydroxypropylcellulose) (HPC) 95 % of control | dose: 25.0 mg/kg/injection, schedule: Q01DX009 (ip), vehicle: Klucel (hydroxypropylcellulose) (HPC) 94 % of control | dose: 50.0 mg/kg/injection, schedule: Q01DX009 (ip), vehicle: Klucel (hydroxypropylcellulose) (HPC) 94 % of control | dose: 100.0 mg/kg/injection, schedule: Q01DX009 (ip), vehicle: Klucel (hydroxypropylcellulose) (HPC) 96 % of control

COc1cc(C2=[N+](C)CCc3cc4c(cc32)OCO4)cc(OC)c1OC
inactive: [6] 99 % of control | [7] 103 % of control

CN(C)CC(C)(CN(C)C)C(=O)/C=C/c1c(Cl)cccc1Cl
inactive: [3] 115 % of control | [1] 120 % of control

C(=C\c1cc2ccc(C3=NCCN3)cc2[nH]1)/c1ccc(Oc2ccc(C3=NCCN3)cc2)cc1
inactive: dose: 3.12 mg/kg/injection, schedule: Q04DX003 (ip), vehicle: saline 108 % of control | dose: 6.25 mg/kg/injection, schedule: Q04DX003 (ip), vehicle: saline 103 % of control | dose: 12.5 mg/kg/injection, schedule: Q04DX003 (ip), vehicle: saline 111 % of control | dose: 25.0 mg/kg/injection, schedule: Q04DX003 (ip), vehicle: saline 120 % of control

COc1ccc(/C=C\Cc2cc3c(cc2OCCO)OCO3)cc1
inactive: [3] 101 % of control | [1] 94 % of control | [2] 98 % of control
